Read-outs that look alike come from different tables or passages of the source. Where a SMILES comes first, the peptide text is derived from it. Some results are limits rather than exact numbers.

Data on 19 molecules can be found in patent publication US11400106B2, “Methods for inhibiting microbe growth” (priority 2018, dated 2022).

In one experiment the test system is S. aureus. As to the kind of experiment: microbe, parasite or virus in culture. Conditions: for MIC: Staphylococcus aureus, read-out: MIC, S. aureus, MHB−. The method, then: (§1) In the following experiments, bacterial cells were cultured in 96-well microtiter plates in cation-adjusted Mueller-Hinton Broth (MHB) for 18 h at 37° C. The main strains used were E. coli (K-12 BW25113) (placed in stationary incubator) and S. aureus (Newman Strain) (incubated at 250 r.p.m). Knockout strains (ΔtolcC and ΔychM) were used from the Keio knockout collection (Baba et al., Construction of Escherichia coli K-12 in-frame, single-gene knockout mutants: the Keio collection. Mol Syst Biol 2, 2006 0008, doi:10.1038/msb4100050 (2006)). For MIC determination and checkerboard analyses, Clinical & Laboratory Standards Institute (CLSI) protocol was used. […] DiSC3 loading of S. aureus cells was performed as previously described (Farha et al., Collapsing the proton motive force to identify synergistic combinations against Staphylococcus aureus. Chemistry & biology 20, 1168-1178, doi:10.1016/j.chembiol.2013.07.006 (2013)). CCCP concentration of 20 μM was used. pH adjustments were made by addition of HCl or NaOH. INT assay and ATP bioluminescence assays were performed as previously described (Farha et al., Collapsing the proton motive force to identify synergistic combinations against Staphylococcus aureus. Chemistry & biology 20, 1168-1178, doi:10.1016/j.chembiol.2013.07.006 (2013)). For chemical-genomic studies, the Keio library was grown overnight in cation-adjusted MHB broth, in 384-well plates. From these, treatment plates (25 mM sodium bicarbonate, or a sterile water control) were inoculated and grown for 15 hours at 37° C., in a stationary incubator. Data was normalized according to Mangat et al (Mangat et al., Rank ordering plate data facilitates data visualization and normalization in high-throughput screening. J Biomol Screen 19, 1314-1320, doi:10.1177/1087057114534298 (2014)), with gene products and GO terms mined from EcoCyc. The GFP promoter library (Keseler et al., EcoCyc: fusing model organism databases with systems biology. Nucleic Acids Res 41, D605-612, doi:10.1093/nar/gks1027 (2013)) was grown for 18 hours at ambient temperature with the same inoculation strategy as with the Keio collection. The analysis pipeline of Zaslaver et al (Zaslaver et al., A comprehensive library of fluorescent transcriptional reporters for Escherichia coli. Nat Methods 3, 623-628, doi:10.1038/nmeth895 (2006)) was used to generate maps of promoter activity, from which lists of promoters with increased or decreased activity were compiled.
(§2) Fold enhancement in MICs in the media supplemented with sodium bicarbonate is represented by a positive fold, whereas suppression of activity is represented by a negative fold.
(§3) The effect of sodium bicarbonate on the activity of additional antibacterial agents was investigated. Clinical isolates of various bacteria were obtained from the ATCC and the IHMA.
(§4) The effect of sodium bicarbonate on the activity of cationic antiseptic agents was investigated. Clinical isolates of various bacteria were obtained from the ATCC and the IHMA.

Another experiment concerns E. coli. Nature of the experiment: microbe, parasite or virus in culture. In kind it is cell-based, Escherichia coli. Conditions: for MIC: Escherichia coli, 18 h, read-out: MIC, E. coli, MHB−. How it is done:
as §1, §2, §3, §4

Setting [1] is: antibiotic agents, MHB in the absence of sodium bicarbonate.
Setting [2] is: MHB in the absence of sodium bicarbonate.
The mark [3] stands for this setting: antiseptic agents, MHB in the absence of sodium bicarbonate.
Where [4] appears, read: antiseptic agents, MHB in the presence of 25 mM sodium bicarbonate.
Where [5] appears, read: antiseptic agents, fold shift in MIC.

On to `NCC[C@H](O)C(=O)N[C@@H]1C[C@H](N)[C@@H](O[C@H]2O[C@H](CN)[C@@H](O)[C@H](O)[C@H]2O)[C@H](O)[C@H]1O[C@H]1O[C@H](CO)[C@@H](O)[C@H](N)[C@H]1O` [Amikacin], for which the “MIC, S. aureus, MHB+” value in the experiment on S. aureus was 8 μg of antimicrobial agent/mL of buffer. Moreover, the MIC in the experiment on S. aureus (18 h) and in the experiment with E. coli (setting [1]) was 4 µg/mL throughout. In addition, in the experiment with E. coli, the “MIC, E. coli, MHB+” value was 4 μg of antimicrobial agent/mL of buffer.

Regarding `CC1(C)S[C@@H]2[C@H](NC(=O)[C@H](N)c3ccc(O)cc3)C(=O)N2[C@H]1C(=O)O` [Amoxicillin], in the experiment with S. aureus, the “MIC, S. aureus, MHB+” value came to 1. Besides, the MIC with S. aureus (18 h) amounted to 0.25 µg/mL; with E. coli, 8 µg/mL.

Turning to `CC1(C)S[C@@H]2[C@H](NC(=O)[C@H](N)c3ccccc3)C(=O)N2[C@H]1C(=O)O` [Ampicillin], the “MIC, S. aureus, MHB+” value in the experiment on S. aureus turned out to be 8. The MIC in the experiment on S. aureus (18 h) was determined as 1 µg/mL; in the experiment on E. coli (setting [2]), 16 µg/mL.

In the case of `CN[C@@H]1[C@@H](O[C@H]2O[C@H](CO)[C@@H](N)[C@H](O)[C@H]2O)OC2C[C@@H](N)[C@@H](O[C@H]3[C@H](O)[C@@H](O)[C@H](N)C[C@@H]3N)OC2[C@@H]1O` (stereo partly shown) [Apramycin], the “MIC, S. aureus, MHB+” value with S. aureus was 32. In addition, the MIC in the experiment on S. aureus (18 h) is 16 µg/mL; in the experiment on E. coli (setting [2]) it was 32 µg/mL.

On to `CC[C@H](C)[C@H](N)C1=N[C@H](C(=O)N[C@@H](CC(C)C)C(=O)N[C@H](CCC(=O)O)C(=O)N[C@H](C(=O)N[C@H]2CCCCNC(=O)[C@H](CC(N)=O)NC(=O)[C@@H](CC(=O)O)NC(=O)[C@H](Cc3cnc[nH]3)NC(=O)[C@@H](Cc3ccccc3)NC(=O)[C@H]([C@@H](C)CC)NC(=O)[C@@H](CCCN)NC2=O)[C@@H](C)CC)CS1` [Bacitracin] (HELM PEPTIDE1{[CC[C@H](C)[C@H](N)C1=N[C@H](C(=O)[*:2])CS1].L.[dE].I.K.[NCCC[C@@H](N[*:1])C(=O)[*:2]].I.[dF].H.[dD].N}$PEPTIDE1,PEPTIDE1,5:R3-11:R2$$$V2.0), for which, in the experiment on S. aureus, the “MIC, S. aureus, MHB+” value worked out at 64. Also, the values for the MIC in the experiment on S. aureus (18 h) and with E. coli (setting [2]) were 32 µg/mL and above 256 µg/mL, respectively.

In the case of `CC[C@H](C)[C@@H]1NC(=O)[C@H](CCCNC(=N)N)NC(=O)[C@@H](NC(=O)[C@H](CC(C)C)NC(=O)[C@@H](N)CCCNC(=N)N)CSSC[C@@H](C(=O)N[C@@H](CCCNC(=N)N)C(=O)O)NC(=O)[C@H](C(C)C)NC(=O)[C@H](CCCNC(=N)N)NC(=O)[C@H]([C@@H](C)CC)NC(=O)[C@H](C(C)C)NC(=O)[C@H](C(C)C)NC1=O` [Bactenesin] (HELM PEPTIDE1{R.L.C.R.I.V.V.I.R.V.C.R}$PEPTIDE1,PEPTIDE1,3:R3-11:R3$$$V2.0; N-terminus and C-terminus assumed; bridges inferred), in the experiment with S. aureus (Newman, 18 h), the “MIC in MHB” value amounted to 128 µg/mL and the “MIC in MHB + 25 mM bicarbonate” value was determined as 0.5 µg/mL. For the same molecule, in the experiment with E. coli, the “enhancement of antimicrobial activity in the presence of bicarbonate” value turned out to be 256 fold.

`NC(=O)c1ccccc1` [Benzamide]: in the experiment on S. aureus, the “MIC, S. aureus, MHB+” value was >128 μg of antimicrobial agent/mL of buffer. Also, the MIC with S. aureus (18 h) and with E. coli (setting [1]) was above 128 µg/mL in each case. Also, in the experiment with E. coli, the “MIC, E. coli, MHB+” value is on record as >128 μg of antimicrobial agent/mL of buffer.

`N[C@@H]1CCCCN(c2c(F)cc3c(=O)c(C(=O)O)cn(C4CC4)c3c2Cl)C1` [Besifloxacin]: the “MIC, S. aureus, MHB+” value in the experiment with S. aureus was 0.25. Also, the results for the MIC with S. aureus (18 h) and with E. coli (setting [2]) were 0.125 µg/mL and 0.25 µg/mL, respectively. In addition, the “effect of 25 mM sodium bicarbonate on antibacterial activity” value with E. coli is “increased”.

As for `N[C@@H](C(=O)N[C@@H]1C(=O)N2C(C(=O)O)=C(Cl)CS[C@H]12)c1ccccc1` [Cefaclor], the “MIC, S. aureus, MHB+” value in the experiment with S. aureus was 8 μg of antimicrobial agent/mL of buffer. Moreover, the MIC was 2 µg/mL in the experiment on S. aureus (18 h) and 4 µg/mL in the experiment with E. coli (setting [1]). The “MIC, E. coli, MHB+” value with E. coli is reported as 4 μg of antimicrobial agent/mL of buffer.

As to `CCN1CCN(C(=O)N[C@@H](C(=O)N[C@@H]2C(=O)N3C(C(=O)O)=C(CSc4nnnn4C)CS[C@H]23)c2ccc(O)cc2)C(=O)C1=O` [Cefoperazone], the “MIC, S. aureus, MHB+” value with S. aureus is on record as 4. In addition, the MIC turned out to be 0.25 µg/mL in the experiment on S. aureus (18 h) and 0.125 µg/mL in the experiment with E. coli (setting [2]).

For the molecule `CO/N=C(\C(=O)N[C@@H]1C(=O)N2C(C(=O)O)=C(COC(C)=O)CS[C@H]12)c1csc(N)n1` [Cefotaxime], the “MIC, S. aureus, MHB+” value in the experiment on S. aureus is 2 μg of antimicrobial agent/mL of buffer. Besides, the MIC in the experiment with S. aureus (18 h) stood at 0.5 µg/mL; in the experiment with E. coli (setting [1]), 4 µg/mL. The “MIC, E. coli, MHB+” value with E. coli was 8 μg of antimicrobial agent/mL of buffer.

In the case of `CO/N=C(\C(=O)N[C@@H]1C(=O)N2C(C(=O)O)=C(CSc3nc(=O)c(=O)[nH]n3C)CS[C@H]12)c1csc(N)n1` [Ceftriaxone], in the experiment with S. aureus, the “MIC, S. aureus, MHB+” value is 16. The values for the MIC in the experiment on S. aureus (18 h) and in the experiment with E. coli (setting [2]) were 4 µg/mL and 0.625 µg/mL, respectively.

Take `CCCCCCCCCCCCCCCC[N+](C)(C)C.[Br-]` [Cetrimodium bromide]: the “MIC, S. aureus, MHB” value with S. aureus (setting [3]) was 16 μg of antimicrobial agent/mL of buffer. Besides, the “MIC, S. aureus, MHB+” value with S. aureus (setting [4]) was 4 μg of antimicrobial agent/mL of buffer. Also, the “Fold, S. aureus” value with S. aureus (setting [5]) amounted to 4. The “MIC, E. coli, MHB” value in the experiment with E. coli (setting [3]) is >128 μg of antimicrobial agent/mL of buffer. Further, the “MIC, E. coli, MHB+” value with E. coli (setting [4]) is listed as 32 μg of antimicrobial agent/mL of buffer. Besides, the “Fold, E. coli” value in the experiment with E. coli (setting [5]) came to 4.

With `O=C(N[C@H](CO)[C@H](O)c1ccc([N+](=O)[O-])cc1)C(Cl)Cl` [Chloramphenicol], the “MIC, S. aureus, MHB+” value in the experiment on S. aureus is reported as 8. Further, the “effect of 25 mM sodium bicarbonate on antibacterial activity” value with S. aureus (S. aureus, result in words) is “remained largely unchanged”; in the experiment with E. coli, “remained largely unchanged”. The MIC in the experiment on S. aureus (18 h) and in the experiment with E. coli (setting [2]) was 8 µg/mL each time.

`[H]/N=C(\N/C(=N/[H])NCCCCCCNC(=N)NC(=N)Nc1ccc(Cl)cc1)Nc1ccc(Cl)cc1` [Chlorhexidine]: in the experiment on S. aureus, the “MIC, S. aureus, MHB” value is 0.5 μg of antimicrobial agent/mL of buffer and the “MIC, S. aureus, MHB+” value is 0.0625 μg of antimicrobial agent/mL of buffer. For the same molecule, in the experiment with E. coli, the “MIC, E. coli, MHB” value is listed as 0.5 μg of antimicrobial agent/mL of buffer and the “MIC, E. coli, MHB+” value was 0.125 μg of antimicrobial agent/mL of buffer.

Turning to `CC[C@H]1OC(=O)[C@H](C)[C@@H](O[C@H]2C[C@@](C)(OC)[C@@H](O)[C@H](C)O2)[C@H](C)[C@@H](O[C@@H]2O[C@H](C)C[C@H](N(C)C)[C@H]2O)[C@](C)(O)C[C@@H](C)C(=O)[C@H](C)[C@@H](O)[C@]1(C)O` [Erythromycin], the “MIC, S. aureus, MHB+” value with S. aureus turned out to be 1. In addition, in the experiment on S. aureus (18 h), the MIC came to 32 µg/mL.

On to `CC[C@H](C)[C@H](N)C(=O)N[C@@H](CC(C)C)C(=O)N1CCC[C@H]1C(=O)N[C@@H](Cc1c[nH]c2ccccc12)C(=O)N[C@@H](CCCCN)C(=O)N[C@@H](Cc1c[nH]c2ccccc12)C(=O)N1CCC[C@H]1C(=O)N[C@@H](Cc1c[nH]c2ccccc12)C(=O)N[C@@H](Cc1c[nH]c2ccccc12)C(=O)N1CCC[C@H]1C(=O)N[C@@H](Cc1c[nH]c2ccccc12)C(=O)N[C@@H](CCCNC(=N)N)C(=O)N[C@@H](CCCNC(=N)N)C(N)=O` [Indolicidin], for which, in the experiment with S. aureus (S. aureus, 25 mM sodium bicarbonate), the “enhancement of antimicrobial activity in the presence of bicarbonate” value is 16 fold.

Turning to `Cc1ncc([N+](=O)[O-])n1CCO` [Metronidazole], in the experiment on S. aureus (18 h), the MIC is above 128 µg/mL.

On to `O=C([O-])O.[K+]` [Potassium bicarbonate], for which, in the experiment on E. coli (E. coli, salt at 25 mM, pH adjusted to 7.4), the “MIC of dirithromycin in the presence of the salt” value was 4 µg/mL.
